Biological target: T1, CRF receptor (Rattus norvegicus, UniProt P35353)
T1 construct: 100 μl of membrane suspension as prepared above to give a total reaction volume of 300 μl; from tissue; host or cells: rat cerebral cortex membrane homogenate
T1 sequence (P35353 24-415): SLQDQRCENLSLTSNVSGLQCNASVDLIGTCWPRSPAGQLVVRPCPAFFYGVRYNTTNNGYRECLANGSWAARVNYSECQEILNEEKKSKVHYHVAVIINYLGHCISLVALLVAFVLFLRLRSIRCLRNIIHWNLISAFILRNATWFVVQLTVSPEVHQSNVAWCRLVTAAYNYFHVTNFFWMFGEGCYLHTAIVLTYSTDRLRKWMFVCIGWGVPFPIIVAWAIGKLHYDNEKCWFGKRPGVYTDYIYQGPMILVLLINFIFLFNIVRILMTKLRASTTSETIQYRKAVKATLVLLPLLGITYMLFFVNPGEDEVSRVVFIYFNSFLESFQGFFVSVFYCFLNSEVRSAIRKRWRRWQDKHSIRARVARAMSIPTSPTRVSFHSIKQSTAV
Test: In vitro CRF receptor binding assay (competition with [125I] ovine CRF, rat cortex membranes)
Conditions: read-out: Inhibition Ki

| Ki [nM] | SMILES |
| --- | --- |
| < 500 | CCN(c1nc(C)cc(C)n1)c1c(Br)cc(OC)cc1Br [compound 226] |
| < 500 | CCN(c1nc(C)cc(C(=O)c2cccnc2)n1)c1ccc(C(C)C)cc1Br [compound 284] |
| < 500 | CCN(c1nc(C)cc(C)n1)c1ccc(C(C)C)cc1SC [compound 168, N-(2-methylthio-4-(1-methylethyl)phenyl)-N-ethyl-4,6-dimethyl-2-pyrimidinamine] |
| < 500 | CCN(c1nc(C)nc(C(C#N)c2ccccc2)n1)c1c(Br)cc(OC)cc1OC (centres unmarked) [compound 247] |

Test system: not given
Test: not given
Conditions: not given

| melting point [°C] | SMILES |
| --- | --- |
| 101 to 103 | CCN(c1nc(C)cc(C)n1)c1c(Br)cc(OC)cc1Br [compound 226] |
| 165 to 167 | CCN(c1nc(C)cc(C(=O)c2cccnc2)n1)c1ccc(C(C)C)cc1Br [compound 284] |
| 64 to 66 | CCN(c1nc(C)cc(C)n1)c1ccc(C(C)C)cc1SC [compound 168, N-(2-methylthio-4-(1-methylethyl)phenyl)-N-ethyl-4,6-dimethyl-2-pyrimidinamine] |
| 50 to 52 | CCN(c1nc(C)nc(C(C#N)c2ccccc2)n1)c1c(Br)cc(OC)cc1OC (centres unmarked) [compound 247] |

Source: patent publication US6342503B1, “1N-alkyl-n-arylpyrimidinamines and derivatives thereof” (DuPont Pharmaceuticals Company, priority 1993, dated 2002)
